± gives the expanded uncertainty stated by the source.
Test: xn = mol fraction of the nth substance listed
Details: for surface tension liquid-gas: wilhelmi plate; for viscosity / speed of sound / mass density: 100 kPa, Liquid; for viscosity: Capillary tube (Ostwald / Ubbelohde) method; for speed of sound: Frequency=3 MHz, Sing-around technique in a fixed-path interferometer; for mass density: Vibrating tube method

CN(C)CCN [2-dimethylamino-1-ethylamine] + O
surface tension liquid-gas (293.15 K, x1 = 0.1002): 42.6 ± 0.7 mN/m
surface tension liquid-gas (293.15 K, x1 = 0.2): 37.1 ± 0.6 mN/m
surface tension liquid-gas (293.15 K, x1 = 0.3002): 32.9 ± 0.6 mN/m
surface tension liquid-gas (293.15 K, x1 = 0.3996): 30.6 ± 0.6 mN/m
surface tension liquid-gas (293.15 K, x1 = 0.5035): 29.4 ± 0.6 mN/m
surface tension liquid-gas (293.15 K, x1 = 0.5995): 28.6 ± 0.6 mN/m
surface tension liquid-gas (293.15 K, x1 = 0.7007): 27.9 ± 0.6 mN/m
surface tension liquid-gas (293.15 K, x1 = 0.8002): 27.4 ± 0.6 mN/m
surface tension liquid-gas (293.15 K, x1 = 0.8999): 26.9 ± 0.7 mN/m
surface tension liquid-gas (293.15 K, x1 = 1): 26.4 ± 0.7 mN/m
viscosity (293.15 K, x1 = 0.1002): 6.83 ± 0.1 mPa·s
viscosity (293.15 K, x1 = 0.2): 12.66 ± 0.073 mPa·s
viscosity (293.15 K, x1 = 0.3002): 10.5 ± 0.08 mPa·s
viscosity (293.15 K, x1 = 0.3996): 6.463 ± 0.069 mPa·s
viscosity (293.15 K, x1 = 0.5035): 3.875 ± 0.043 mPa·s
viscosity (293.15 K, x1 = 0.5995): 2.743 ± 0.028 mPa·s
viscosity (293.15 K, x1 = 0.7007): 1.965 ± 0.021 mPa·s
viscosity (293.15 K, x1 = 0.8002): 1.464 ± 0.016 mPa·s
viscosity (293.15 K, x1 = 0.8999): 1.162 ± 0.013 mPa·s
viscosity (293.15 K, x1 = 1): 0.988 ± 0.012 mPa·s
speed of sound (293.15 K, x1 = 0.1002): 1773.4 ± 2.5 m/s
speed of sound (293.15 K, x1 = 0.2): 1708.6 ± 2.2 m/s
speed of sound (293.15 K, x1 = 0.3002): 1605.4 ± 2.3 m/s
speed of sound (293.15 K, x1 = 0.3996): 1517.2 ± 2.2 m/s
speed of sound (293.15 K, x1 = 0.5035): 1456.6 ± 2.1 m/s
speed of sound (293.15 K, x1 = 0.5995): 1419.2 ± 2.1 m/s
speed of sound (293.15 K, x1 = 0.7007): 1387.2 ± 2.2 m/s
speed of sound (293.15 K, x1 = 0.8002): 1349.8 ± 2.3 m/s
speed of sound (293.15 K, x1 = 0.8999): 1328 ± 2.4 m/s
speed of sound (293.15 K, x1 = 1): 1319.6 ± 2.5 m/s
mass density (293.15 K, x1 = 0.1002): 975 ± 2 kg/m3
mass density (293.15 K, x1 = 0.2): 952 ± 2 kg/m3
mass density (293.15 K, x1 = 0.3002): 920 ± 2 kg/m3
mass density (293.15 K, x1 = 0.3996): 895 ± 2 kg/m3
mass density (293.15 K, x1 = 0.5035): 874 ± 2 kg/m3
mass density (293.15 K, x1 = 0.5995): 858 ± 2 kg/m3
mass density (293.15 K, x1 = 0.7007): 844 ± 2 kg/m3
mass density (293.15 K, x1 = 0.8002): 833 ± 2 kg/m3
mass density (293.15 K, x1 = 0.8999): 825 ± 2 kg/m3
mass density (293.15 K, x1 = 1): 819 ± 2 kg/m3
surface tension liquid-gas (303.15 K, x1 = 0.1002): 41.9 ± 0.7 mN/m
surface tension liquid-gas (303.15 K, x1 = 0.2): 36.3 ± 0.6 mN/m
surface tension liquid-gas (303.15 K, x1 = 0.3002): 32.2 ± 0.6 mN/m
surface tension liquid-gas (303.15 K, x1 = 0.3996): 29.8 ± 0.6 mN/m
surface tension liquid-gas (303.15 K, x1 = 0.5035): 28.6 ± 0.6 mN/m
surface tension liquid-gas (303.15 K, x1 = 0.5995): 27.8 ± 0.6 mN/m
surface tension liquid-gas (303.15 K, x1 = 0.7007): 27.1 ± 0.6 mN/m
surface tension liquid-gas (303.15 K, x1 = 0.8002): 26.6 ± 0.6 mN/m
surface tension liquid-gas (303.15 K, x1 = 0.8999): 26.1 ± 0.6 mN/m
surface tension liquid-gas (303.15 K, x1 = 1): 25.8 ± 0.7 mN/m
viscosity (303.15 K, x1 = 0.1002): 4.28 ± 0.058 mPa·s
viscosity (303.15 K, x1 = 0.2): 7.355 ± 0.045 mPa·s
viscosity (303.15 K, x1 = 0.3002): 6.268 ± 0.048 mPa·s
viscosity (303.15 K, x1 = 0.3996): 4.148 ± 0.041 mPa·s
viscosity (303.15 K, x1 = 0.5035): 2.709 ± 0.027 mPa·s
viscosity (303.15 K, x1 = 0.5995): 2.013 ± 0.02 mPa·s
viscosity (303.15 K, x1 = 0.7007): 1.51 ± 0.016 mPa·s
viscosity (303.15 K, x1 = 0.8002): 1.161 ± 0.013 mPa·s
viscosity (303.15 K, x1 = 0.8999): 0.94 ± 0.011 mPa·s
viscosity (303.15 K, x1 = 1): 0.819 ± 0.01 mPa·s
speed of sound (303.15 K, x1 = 0.1002): 1743.6 ± 2.1 m/s
speed of sound (303.15 K, x1 = 0.2): 1672.8 ± 2.2 m/s
speed of sound (303.15 K, x1 = 0.3002): 1568.6 ± 2.3 m/s
speed of sound (303.15 K, x1 = 0.3996): 1480.2 ± 2.2 m/s
speed of sound (303.15 K, x1 = 0.5035): 1419.2 ± 2.1 m/s
speed of sound (303.15 K, x1 = 0.5995): 1381.6 ± 2.1 m/s
speed of sound (303.15 K, x1 = 0.7007): 1349 ± 2.2 m/s
speed of sound (303.15 K, x1 = 0.8002): 1305.2 ± 2.3 m/s
speed of sound (303.15 K, x1 = 0.8999): 1288.7 ± 2.4 m/s
speed of sound (303.15 K, x1 = 1): 1279.3 ± 2.5 m/s
mass density (303.15 K, x1 = 0.1002): 970 ± 2 kg/m3
mass density (303.15 K, x1 = 0.2): 943 ± 2 kg/m3
mass density (303.15 K, x1 = 0.3002): 912 ± 2 kg/m3
mass density (303.15 K, x1 = 0.3996): 886 ± 2 kg/m3
mass density (303.15 K, x1 = 0.5035): 865 ± 2 kg/m3
mass density (303.15 K, x1 = 0.5995): 849 ± 2 kg/m3
mass density (303.15 K, x1 = 0.7007): 835 ± 2 kg/m3
mass density (303.15 K, x1 = 0.8002): 824 ± 2 kg/m3
mass density (303.15 K, x1 = 0.8999): 816 ± 2 kg/m3
mass density (303.15 K, x1 = 1): 810 ± 2 kg/m3

— the NIST ThermoML archive (doi:10.1021/acs.jced.5b00447)
